The target in one assay is SARS-CoV-2 3CL Protease (Severe acute respiratory syndrome coronavirus 2, UniProt P0DTD1). The experiment in a line: biochemical.
The test system of another assay is 3C^pro. Particulars: ref [56]; cited from earlier work.
For the next assay, the system named is DPP-4. Particulars: ref [33],[34]; cited from earlier work. From the text:
Recently, we investigated ACE inhibitory activity by peptide sequences, derived from the enzymatic hydrolysis of whey proteins and predicted by molecular docking and related prioritization studies.

In a further assay the test system is Gram-positive bacteria. As to conditions: ref [33],[34]; cited from earlier work.
[1] abbreviates: read-out: Relative Inhibition (RI %).

Where a SMILES comes first, the peptide text is derived from it. The star is where a group is joined. Cbz = O=C(OCc1ccccc1)*

Usually IC50 stands for the concentration that inhibits the measured activity by half. As usually defined, the inhibition is the percentage by which the read-out fell short of the control.

Regarding `CC[C@H](C)[C@H](N)C(=O)N[C@@H](C)C(=O)N[C@@H](CCC(=O)O)C(=O)N[C@@H](CCCCN)C(=O)O` [IAEK] (H-IAEK-OH), the IC50 against SARS-CoV-2 3CL Protease is 154 µM. For the same molecule, at SARS-CoV-2 3CL Protease (setting [1]), the inhibition at 0.036 µM worked out at 34.6 ± 1.13%, the inhibition at 0.36 µM came out at 40.5 ± 1.26%, the inhibition at 3.6 µM amounted to 46.5 ± 3.48% and the inhibition at 36.6 µM was 46.6 ± 3.79%. On SARS-CoV-2 3CL Protease (setting [1]), the inhibition at 109.8 µM came to 49.7 ± 3.16%, the inhibition at 183 µM was 87.7 ± 1.61% and the inhibition at 366 µM came to 84 ± 3.39%.
Regarding “Cbz-Leu-Phe-Gln-aldehyde [tripeptide aldehydes]”, in the assay with 3C^pro, the “inhibitory activity against 3C^pro” value was “poor inhibitory activity”.
Take IPAVFK: in the assay on DPP-4, the DPP-4 inhibitory activity entry is recorded as “exhibited DPP-4 inhibitory activity”. Besides, the antimicrobial activity entry in the assay on Gram-positive bacteria was “antimicrobial activity against Gram-positive bacteria”.

These data come from article PMC9139167, “Rational Discovery of Antiviral Whey Protein-Derived Small Peptides Targeting the SARS-CoV-2 Main Protease” (Biomedicines, 2022).
